Source: paper PMC11130353, “Using host-mimicking conditions and a murine cutaneous abscess model to identify synergistic antibiotic combinations effective against Pseudomonas aeruginosa” (Frontiers in Cellular and Infection Microbiology, 2024)
≈ marks a conversion by molar mass, not a printed value. Read-outs that look alike come from different tables or passages of the source.

Experiments:
P. aeruginosa LESB58 [1] = test: microbe, parasite or virus in culture; type: cell-based, Pseudomonas aeruginosa; conditions: for MIC: Pseudomonas aeruginosa
Protocol: (§1) For susceptibility testing under standard conditions, bacteria were cultured in Muller Hinton Broth MHB (Fort Richards Laboratories). […] Further susceptibility testing was also conducted in MHB supplemented with FBS (5% v/v) and DMEM supplemented with glucose (1% w/v) and MHB (10% v/v).
The minimum inhibitory concentration (MIC) of each antibiotic was determined using the broth microdilution method in 96-well plates. […] Briefly, antibiotics were two-fold serially diluted in MHB or TCM prior to adding 1 × 10^6 CFU mL^-1 bacteria. […] The MIC was recorded as the lowest antibiotic concentration with no visible growth and the median value of at least three biological replicates reported.

[2] = Protocol: Mice used in this study were female Swiss Webster aged approximately 6-7 weeks and sourced from the University of Otago Biomedical Research Facility. […] Briefly, the fur on the back of each mouse was removed by shaving and chemical depilation. Antibiotics were tested for skin toxicity by injecting 50 μL of antibiotic suspension subcutaneously into naïve mice, and subsequent inspection of the skin for inflammation on the next day. P. aeruginosa LESB58 was grown to mid-log phase in dYT broth, washed twice in sterile PBS (Gibco, pH 7.4), and resuspended in PBS to ~1 x 10^8 CFU per 50 μL inoculum. The bacterial suspension (50 μL) was injected subcutaneously into the right side of the dorsum, followed one hour later by 50 μL of antibiotic treatment injected directly into the infected area. […] Combination treatments were administered as a single 50 μL injection containing both antibiotics. The concentration of each antibiotic in the combination was the same as when it was used alone. Progression of the infection was monitored daily, and abscess dimensions were measured on day three using a calliper. On day three, abscess tissue and pus were excised, homogenized in sterile PBS using SPEX SamplePrep 1600 MiniG for five minutes and bacterial CFU counts determined by serial dilution.
P. aeruginosa LESB58 [3] = test: In vitro synergy, checkerboard assay; type: cell-based, Pseudomonas aeruginosa; conditions: MHB; for FICI, drug combined with CAZ / FICI, drug combined with CZA: FICI <= 0.5 indicates synergy
Protocol: For susceptibility testing under standard conditions, bacteria were cultured in Muller Hinton Broth MHB (Fort Richards Laboratories). Host mimicking conditions in vitro were simulated using tissue culture medium (TCM) consisting of Dulbecco’s modified Eagle medium (DMEM; Gibco #11965) supplemented with FBS (Moregate Biotech) (5% v/v) and glucose (1% w/v). Further susceptibility testing was also conducted in MHB supplemented with FBS (5% v/v) and DMEM supplemented with glucose (1% w/v) and MHB (10% v/v).
The P. aeruginosa LESB58.lux strain was used for in vitro synergy experiments with azithromycin in MHB and all antibiotic combinations in TCM to determine bacterial growth (as visual inspection and absorbance measurements were unreliable). Synergy was determined using the checkerboard method ([Berenbaum, 1978]; [Pletzer and Hancock, 2018]) in at least triplicate. Each antibiotic was two-fold serially diluted in sterile water before transferring to a 96-well plate containing 1 × 10^6 CFU mL^-1 bacteria in MHB or TCM. Plates were incubated at 37°C for 22-24 hours. The MIC alone or in combination was recorded as the lowest antibiotic concentration with no visible growth. For experiments using the LESB58.lux strain no visible growth was defined as an at least 95% reduction compared to the no antibiotic growth control in luminescence detected using a ClarioStar plate reader. The fractional inhibitory concentration index (FICI) was calculated as [(MICA in combination)/MICA] + [(MICB in combination)/MICB]. FICI values of 0.5 or below indicated synergy, while values above 0.5 up to and including 1 were taken to indicate additivity. FICI values above 1 indicate indifference or antagonism ([Odds, 2003]).

P. aeruginosa LESB58 [4] = test: Murine high density subcutaneous skin abscess model; type: in vivo, Pseudomonas aeruginosa; conditions: Colistin, day 3
Protocol: Mice used in this study were female Swiss Webster aged approximately 6-7 weeks and sourced from the University of Otago Biomedical Research Facility. […] The subcutaneous abscess infection model was performed as previously described ([Pletzer et al., 2017]) with a higher inoculum. Briefly, the fur on the back of each mouse was removed by shaving and chemical depilation. Antibiotics were tested for skin toxicity by injecting 50 μL of antibiotic suspension subcutaneously into naïve mice, and subsequent inspection of the skin for inflammation on the next day. P. aeruginosa LESB58 was grown to mid-log phase in dYT broth, washed twice in sterile PBS (Gibco, pH 7.4), and resuspended in PBS to ~1 x 10^8 CFU per 50 μL inoculum. The bacterial suspension (50 μL) was injected subcutaneously into the right side of the dorsum, followed one hour later by 50 μL of antibiotic treatment injected directly into the infected area. […] Combination treatments were administered as a single 50 μL injection containing both antibiotics. The concentration of each antibiotic in the combination was the same as when it was used alone. Progression of the infection was monitored daily, and abscess dimensions were measured on day three using a calliper. On day three, abscess tissue and pus were excised, homogenized in sterile PBS using SPEX SamplePrep 1600 MiniG for five minutes and bacterial CFU counts determined by serial dilution. In this model, synergy was defined as being a significant difference between the combination treated group and the amalgamated group of single drug treated animals ([Fantin and Carbon, 1992]; [Pletzer et al., 2018]).
Statistical analysis was performed using GraphPad Prism 9.5.1. Bacterial CFU and abscess size data from in vivo experiments was analysed by Kruskal-Wallace test with Dunn’s correction for multiple comparisons. The data was considered significant when p-values were below 0.05 or 0.01 as indicated.

P. aeruginosa PAO1 = test: Minimum inhibitory concentration, broth microdilution; type: cell-based, Pseudomonas aeruginosa; conditions: for MIC: Pseudomonas aeruginosa, PAO1
Protocol: as §1
The minimum inhibitory concentration (MIC) of each antibiotic was determined using the broth microdilution method in 96-well plates. […] Briefly, antibiotics were two-fold serially diluted in MHB or TCM prior to adding 1 × 10^6 CFU mL^-1 bacteria. Plates were incubated at 37°C for 22-24 hours. The MIC was recorded as the lowest antibiotic concentration with no visible growth and the median value of at least three biological replicates reported.

[5] = tigecycline and tobramycin groups, compared to the vehicle control

In the case of `CN(C)c1cc(NC(=O)CNC(C)(C)C)c(O)c2c1C[C@H]1C[C@H]3[C@H](N(C)C)C(O)=C(C(N)=O)C(=O)[C@@]3(O)C(O)=C1C2=O` [TGC, tigecycline], the “Fold change TCM vs MHB (MIC)” value (P. aeruginosa LESB58 [1]; MIC in TCM vs MIC in MHB) was greater than 80, the MIC (P. aeruginosa LESB58 [1]; LESB58, read-out: MIC in MHB, MHB, 20-24 h) was 6.25 µg/mL (≈ 10.7 µM) and the MIC (P. aeruginosa LESB58 [1]; LESB58, read-out: MIC in TCM, TCM (DMEM + 1% glucose + 5% FBS), 20-24 h) was greater than 500 µg/mL. For the same compound, the “MIC in TCM” value (P. aeruginosa LESB58 [1]; TCM (DMEM + 1% glucose + 5% FBS), 20-24 h) was “entirely lost its efficacy”, the “Highest tolerated dose tested” value ([2]; 50 μL injected subcutaneously, skin inspected next day) was 12 mg/mL and the “Toxic (visible skin irritation, inflammation, blood vessels, swelling)” value ([2]; female, Swiss Webster, mouse, in vivo, sc, 1 day) was 25 mg/mL. For the same compound, the “Fold decrease in CAZ MIC, drug combined with CAZ” value (P. aeruginosa LESB58 [3]) was 4, the “Fold decrease in CZA MIC, drug combined with CZA” value (P. aeruginosa LESB58 [3]) was 8 and the “Fold decrease in other MIC, drug combined with CAZ” value (P. aeruginosa LESB58 [3]) was 8. The “Fold decrease in other MIC, drug combined with CZA” value (P. aeruginosa LESB58 [3]) was 8, the “FICI, drug combined with CAZ” value (P. aeruginosa LESB58 [3]) was 0.38 and the “FICI, drug combined with CZA” value (P. aeruginosa LESB58 [3]) was 0.25. The “FICI, drug combined with CAZ” value (P. aeruginosa LESB58 [3]; listed as tigecycline) was less than 0.4, the “FICI, drug combined with CZA” value (P. aeruginosa LESB58 [3]; listed as tigecycline) was less than 0.4 and the “Area of dermoncecrosis, Mean” value (P. aeruginosa LESB58 [4]; tigecycline and tobramycin groups (shared vehicle, CAZ and CZA mice), female Swiss Webster mice, 50 μL s.c. 1 h after infection, CAZ or CZA 50, CST 1.25, TGC 2.5, TOB 2 mg/mL, vehicle 0.9% saline) was 86.7 mm^2. For the same compound, the “Area of dermoncecrosis, % reduction” value (P. aeruginosa LESB58 [4]; [5]) was 7.7%, the “CFU per abscess, Fold change” value (P. aeruginosa LESB58 [4]; [5]) was -2.4 and the “CFU per abscess, Geometric mean” value (P. aeruginosa LESB58 [4]; tigecycline and tobramycin groups) was 1.0 × 10^8 CFU per abscess. The “Fold change TCM vs MHB (MIC)” value (P. aeruginosa PAO1; MIC in TCM vs MIC in MHB) was greater than 40, the MIC (P. aeruginosa PAO1; read-out: MIC in MHB) was 12.5 µg/mL (≈ 21.3 µM) and the MIC (P. aeruginosa PAO1; read-out: MIC in TCM) was greater than 500 µg/mL.
